Measured values as given in patent US8492374B2, “Azaazulene compounds” (Industrial Technology Research Institute, priority 2009, dated 2013).

What was measured:
FLT-3 kinase = target: T1, FLT-3 kinase (Homo sapiens, UniProt P36888); assay: FLT-3 kinase DELFIA assay (HTScan FLT-3 Kinase Assay Kit); assay type: biochemical; conditions: 20 uM ATP; for inhibition at 0.1 µM: 0.1 uM compound; for inhibition at 1 µM: 1 uM compound
T1 construct: human FLT-3 (Arg571-Ser993); GST (N); purchased Cell Signaling Technology HTScan FLT-3 Kinase Assay Kit; host or cells: baculovirus expression system
T1 sequence (P36888 571-993): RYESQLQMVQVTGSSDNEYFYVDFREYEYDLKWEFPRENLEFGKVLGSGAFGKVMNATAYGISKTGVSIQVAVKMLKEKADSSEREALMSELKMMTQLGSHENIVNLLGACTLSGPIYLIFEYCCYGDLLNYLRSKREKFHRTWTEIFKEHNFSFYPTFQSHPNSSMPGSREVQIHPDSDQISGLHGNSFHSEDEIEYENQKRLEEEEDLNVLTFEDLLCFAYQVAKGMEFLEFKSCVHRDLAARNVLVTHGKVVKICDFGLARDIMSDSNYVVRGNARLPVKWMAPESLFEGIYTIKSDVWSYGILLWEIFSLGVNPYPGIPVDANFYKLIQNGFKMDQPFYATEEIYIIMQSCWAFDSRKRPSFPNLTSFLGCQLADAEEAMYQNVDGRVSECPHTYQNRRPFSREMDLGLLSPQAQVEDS
Procedure: Azaazulene Compounds of this invention were treated for their efficacy in inhibiting activities of FLT-3, c-KIT and KDR kinases by biochemical DELFIA (Dissociation Enhanced Lanthanide FIA) assays according to the procedure described below. The assays were conducted by, Division of Cell Engineering, Biomedical Engineering Research Laboratories, Industrial Technology Research Institute, Bldg. 53, 195, sec. 4, Chung Hsing Rd. Chutung, Hsinchu, Taiwan 310, R.O.C.
The FLT-3 assay was conducted following the protocol described in Protocol for HTScang FLT-3 Kinase Assay Kit (Cell Signaling Technology®).

[1] = test system: MV4-11 (FLT3-ITD) cell line; assay: In vitro cell activity assay (MTT cell viability, 72 hours); assay type: cell-based; conditions: Homo sapiens, 72 hours at 37° C., 10,000 cells per well, read-out: IC50 against MV4-11
Procedure: Human MV4-11 (FLT3-ITD) cell line was obtained from American Tissue Culture Collection (ATCC number: CRL-9591). The cell line was cultured with RPMI 1640 containing 10% fetal bovine serum, 1 mmol/L sodium pyruvate and 10 mmol/L HEPES (pH 7.4). The cell was grown and maintained in a humidified atmosphere at 37° C. and 5% carbon dioxide.
MV4-11 cell was plated in 96-well microtiter plates (10,000 cells per well) and serial dilutions of indicated compounds were added. At the end of the incubation period (72 hours at 37° C.), cell viability was determined by a tetrazolium dye, MTT (3-(4,5-dimethylthiazol-2-yl)-2,5-diphenyl tetrazolium bromide) (Promega, Madison, Wis.). The formazan crystals were dissolved by DMSO, and the absorbance at a wavelength of 600 nm was recorded using an ELISA plate reader. IC50 values were calculated using nonlinear regression and defined as the concentration needed for a 50% reduction in absorbance of treated versus untreated control cells.

Row | Compound | inhibition at 0.1 µM (FLT-3 kinase) | inhibition at 1 µM (FLT-3 kinase) | IC50 [1]
1 | O=Cc1ccc(N2CCN(c3ccc4[nH]c(-c5c6cccccc-6[nH]c5=O)nc4c3)CC2)o1 [Compound B59] | 55.6% | 96.1% | 146 nM
2 | O=c1[nH]c2cccccc-2c1-c1nc2cc(N3CCN(c4ccncc4)CC3)ccc2[nH]1 [Compound B60] | 71.7% | 99.1% | 5.9 nM
3 | O=c1[nH]c2cccccc-2c1-c1nc2cc(N3CCN(c4c(F)cncc4F)CC3)ccc2[nH]1 [Compound B61] | 17.7% | 74.3% | 270 nM
4 | O=c1[nH]c2cccccc-2c1-c1nc2cc(N3CCN(c4ccccn4)CC3)ccc2[nH]1 [Compound B64] | 29.5% | 79.2% | 250 nM
5 | O=C(c1ccc2[nH]c(-c3c4cccccc-4[nH]c3=O)nc2c1)N1CCN(c2ccncc2)CC1 [Compound B72] | 36.8% | 85.5% | 50 to 100 nM
6 | O=c1[nH]c2cccccc-2c1-c1nc2cc(N3CCCNCC3)ccc2[nH]1 [Compound B76] | 50% | 92.9% | 25.6 nM
7 | CN1CCCN(c2ccc3[nH]c(-c4c5cccccc-5[nH]c4=O)nc3c2)CC1 [Compound B77] | 47.1% | 94.3% | 39.2 nM
8 | O=c1[nH]c2cccccc-2c1-c1nc2cc(N3CCCNCC3)ccc2n1CCF [Compound B79] | 22.3% | 36.6% | 346 nM
9 | CN1CCCN(c2cc3nc(-c4c5cccccc-5[nH]c4=O)[nH]c3cc2F)CC1 [Compound B85] | 44.4% | 89.8% | 131 nM
10 | O=C(O)CCC(=O)N1CCCN(c2ccc3[nH]c(-c4c5cccccc-5[nH]c4=O)nc3c2)CC1 [Compound B89] | 20% | 56.7% | > 5000 nM
11 | CN(C)S(=O)(=O)N1CCCN(c2ccc3[nH]c(-c4c5cccccc-5[nH]c4=O)nc3c2)CC1 [Compound B91] | 14.3% | 42.5% | 876 nM
12 | O=c1[nH]c2cccccc-2c1-c1nc2cc(N3CCCN(c4ccncc4)CC3)ccc2[nH]1 [Compound B93] | 44.2% | 89.4% | 129 nM
13 | O=c1[nH]c2cccccc-2c1-c1nc2cc(N3CCCN(c4cccc(Cl)n4)CC3)ccc2[nH]1 [Compound B96] | 10.9% | 35.7% | 1000 to 5000 nM
14 | O=c1[nH]c2cccccc-2c1-c1nc2cc(N3CCCN(c4ncccn4)CC3)ccc2[nH]1 [Compound B98] | 17.8% | 69.5% | 418 nM
15 | O=c1[nH]c2cccccc-2c1-c1nc2cc(N3CCCN(c4cnccn4)CC3)ccc2[nH]1 [Compound B99] | 17% | 51.8% | 600 nM
16 | Cc1ccc(N2CCCN(c3ccc4[nH]c(-c5c6cccccc-6[nH]c5=O)nc4c3)CC2)nn1 [Compound B100] | 9.1% | 20.2% | 1000 to 5000 nM
17 | CN(C)C1CCN(c2ccc3[nH]c(-c4c5cccccc-5[nH]c4=O)nc3c2)CC1 [Compound B101] | 46.8% | 90.7% | 39.7 nM
18 | O=c1[nH]c2cccccc-2c1-c1nc2cc(N3CCC(N4CCCCC4)CC3)ccc2[nH]1 [Compound B102] | 22.8% | 67.8% | 115 nM
19 | O=c1[nH]c2cccccc-2c1-c1nc2cc(N3CCC(N4CCOCC4)CC3)ccc2[nH]1 [Compound B103] | 36.5% | 87.4% | 42 nM
20 | O=c1[nH]c2cccccc-2c1-c1nc2cc(N3CCC(N4CCCC4)CC3)ccc2[nH]1 [Compound B104] | 28.3% | 84.1% | 69.1 nM
21 | CN1CCN(C2CCN(c3ccc4[nH]c(-c5c6cccccc-6[nH]c5=O)nc4c3)CC2)CC1 [Compound B105] | 38.7% | 86% | 177 nM
22 | CCC1CCN(c2ccc3[nH]c(-c4c5cccccc-5[nH]c4=O)nc3c2)CC1 [Compound B106] | 24.2% | 76.2% | 315 nM
23 | NC(=O)C1CCN(c2ccc3[nH]c(-c4c5cccccc-5[nH]c4=O)nc3c2)CC1 [Compound B108] | 16% | 86.5% | 89.1 nM
24 | CCOCC1CCN(c2ccc3[nH]c(-c4c5cccccc-5[nH]c4=O)nc3c2)CC1 [Compound B109] | 17.3% | 35.2% | ~1000 nM
25 | O=c1[nH]c2cccccc-2c1-c1nc2cc(N3CCOCC3)ccc2[nH]1 [Compound B111] | 24.5% | 75% | 169 nM
26 | CN1CCN(S(=O)(=O)c2ccc3[nH]c(-c4c5cccccc-5[nH]c4=O)nc3c2)CC1 [Compound B112] | 9.5% | 21.3% | 1000 to 5000 nM
27 | CN1CCCN(S(=O)(=O)c2ccc3[nH]c(-c4c5cccccc-5[nH]c4=O)nc3c2)CC1 [Compound B113] | 14.8% | 42% | 100 to 500 nM
28 | O=C(c1ccccc1)c1ccc2[nH]c(-c3c4cccccc-4[nH]c3=O)nc2c1 [Compound B114] | 10% | 16.3% | 1000 to 5000 nM

Further lines, results first:

Row | inhibition at 0.1 µM (FLT-3 kinase) | inhibition at 1 µM (FLT-3 kinase) | IC50 [1] | Compound
29 | 9.5% | 13.7% | > 5000 nM | Nc1cc(N2CCN(c3ccc4[nH]c(-c5c6cccccc-6[nH]c5=O)nc4c3)CC2)ccn1 [Compound B62]
30 | 18.9% | 33.4% | 473 nM | O=c1[nH]c2cccccc-2c1-c1nc2cc(N3CCN(c4cccnc4)CC3)ccc2[nH]1 [Compound B63]
31 | 16.3% | 60.5% | 278 nM | O=c1[nH]c2cccccc-2c1-c1nc2cc(N3CCN(c4ncccc4[N+](=O)[O-])CC3)ccc2[nH]1 [Compound B65]
32 | 20.3% | 55.5% | 466 nM | O=c1[nH]c2cccccc-2c1-c1nc2cc(N3CCN(c4ncccc4Cl)CC3)ccc2[nH]1 [Compound B66]
33 | 43.3% | 95.3% | 77.8 nM | Cc1cc(N2CCN(c3ccc4[nH]c(-c5c6cccccc-6[nH]c5=O)nc4c3)CC2)nc(N(C)C)n1 [Compound B67]
34 | 39.1% | 80.7% | 234 nM | O=c1[nH]c2cccccc-2c1-c1nc2cc(N3CCN(c4ncccn4)CC3)ccc2[nH]1 [Compound B68]
35 | 29.3% | 77.3% | 100 to 500 nM | O=c1[nH]c2cccccc-2c1-c1nc2cc(N3CCN(c4cnccn4)CC3)ccc2[nH]1 [Compound B69]
36 | 6.8% | 39.3% | 957 nM | CN1CCN(C(=O)c2ccc3[nH]c(-c4c5cccccc-5[nH]c4=O)nc3c2)CC1 [Compound B71]
37 | 23.7% | 22.3% | ~1000 nM | O=C(Nc1ccc(N2CCCC2)cn1)c1ccc2[nH]c(-c3c4cccccc-4[nH]c3=O)nc2c1 [Compound B73]
38 | 27.1% | 64% | 163 nM | CN1CCCN(C(=O)c2ccc3[nH]c(-c4c5cccccc-5[nH]c4=O)nc3c2)CC1 [Compound B74]
39 | 13.4% | 37.1% | ~1000 nM | O=C(Nc1ccc2[nH]c(-c3c4cccccc-4[nH]c3=O)nc2c1)c1ccncc1 [Compound B75]
40 | 20.3% | 39.4% | 100 to 500 nM | O=c1[nH]c2cccccc-2c1-c1nc2cc(N3CCCN(CCF)CC3)ccc2n1CCF [Compound B78]
41 | 23% | 59.2% | 504 nM | CS(=O)(=O)N1CCCN(c2ccc3[nH]c(-c4c5cccccc-5[nH]c4=O)nc3c2)CC1 [Compound B90]
42 | 17.9% | 51.4% | 910 nM | O=C(c1ccc2[nH]c(-c3c4cccccc-4[nH]c3=O)nc2c1)N1CCCN(c2ccncc2)CC1 [Compound B92]
